These compounds were tested against T1, Protein deacetylase HDAC6 (Homo sapiens) (UniProt Q9UBN7). Conditions: at 10 µM.
T1 sequence (whole entry): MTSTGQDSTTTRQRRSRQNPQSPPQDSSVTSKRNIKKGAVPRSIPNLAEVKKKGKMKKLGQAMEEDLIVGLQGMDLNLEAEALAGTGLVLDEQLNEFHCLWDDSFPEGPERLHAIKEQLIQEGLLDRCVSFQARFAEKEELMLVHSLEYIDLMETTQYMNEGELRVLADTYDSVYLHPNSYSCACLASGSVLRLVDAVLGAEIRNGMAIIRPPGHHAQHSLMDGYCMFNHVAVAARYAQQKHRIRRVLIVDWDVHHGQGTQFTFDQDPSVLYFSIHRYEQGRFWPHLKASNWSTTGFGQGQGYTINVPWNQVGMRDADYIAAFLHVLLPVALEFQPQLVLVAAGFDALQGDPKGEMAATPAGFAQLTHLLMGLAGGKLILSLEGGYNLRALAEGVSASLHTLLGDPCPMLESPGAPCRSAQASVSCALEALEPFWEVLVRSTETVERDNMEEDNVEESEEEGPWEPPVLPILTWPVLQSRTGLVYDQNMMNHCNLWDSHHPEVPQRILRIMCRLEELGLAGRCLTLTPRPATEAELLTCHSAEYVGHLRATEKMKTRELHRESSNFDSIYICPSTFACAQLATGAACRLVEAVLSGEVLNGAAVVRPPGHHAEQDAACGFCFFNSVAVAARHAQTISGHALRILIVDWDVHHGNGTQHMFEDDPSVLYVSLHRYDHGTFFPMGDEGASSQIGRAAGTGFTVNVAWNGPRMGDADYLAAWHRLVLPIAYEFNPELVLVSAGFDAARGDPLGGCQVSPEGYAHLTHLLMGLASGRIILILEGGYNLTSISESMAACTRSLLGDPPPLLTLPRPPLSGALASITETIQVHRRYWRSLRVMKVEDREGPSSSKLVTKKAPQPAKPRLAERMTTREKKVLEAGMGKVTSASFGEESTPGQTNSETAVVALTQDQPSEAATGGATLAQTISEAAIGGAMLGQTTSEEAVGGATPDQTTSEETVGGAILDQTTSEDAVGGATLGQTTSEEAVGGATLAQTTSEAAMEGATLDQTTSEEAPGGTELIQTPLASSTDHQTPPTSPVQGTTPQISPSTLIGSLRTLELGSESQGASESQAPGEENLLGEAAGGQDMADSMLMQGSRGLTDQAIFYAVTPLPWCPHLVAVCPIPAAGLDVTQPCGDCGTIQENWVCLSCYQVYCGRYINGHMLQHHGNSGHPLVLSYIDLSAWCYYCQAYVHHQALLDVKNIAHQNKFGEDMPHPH

SMILES | inhibition [%]
CCCCOC(=O)c1ccc(O)cc1 | 81.3
COc1ccc(-c2coc3cc(O)cc(O)c3c2=O)cc1 | 101
O=C1OC2(c3cc(I)c(O)c(I)c3Oc3c2cc(I)c(O)c3I)c2c(Cl)c(Cl)c(Cl)c(Cl)c21 | 68.7
CCCCc1nc2cc(/C=C/C(=O)NO)ccc2n1CCN(CC)CC | 83.5
O=C(CCCCCN1C(=O)c2cccc3cccc(c23)C1=O)NO | 104
O=C(NC1CC1)c1cc(-c2cccs2)on1 | 70.5
CCC(=O)NO | 37.4
CC(C)(C)c1[nH]cnc1/C=c1\[nH]c(=O)/c(=C/c2ccccc2)[nH]c1=O | 80.7
CN(C)Cc1c(C(=O)NCCOc2ccc(C(=O)NO)cc2)oc2ccccc12 | 102
Cc1ccc(NC(=O)c2ccc(CN3CCN(C)CC3)cc2)cc1Nc1nc(-c2cccnc2)cs1 | 22.6
O=C(/C=C/c1ccc2c(c1)OCO2)N1CCCCC1 | 89.8
Cn1cc(/C=C2/C(=O)Nc3cccnc32)c2ccccc21 | 109
CC(C)c1ccc2oc3nc(N)c(C(=O)O)cc3c(=O)c2c1 | 108
COc1ccc(-c2nc3cc(C4=NNC(=O)CC4C)ccc3[nH]2)cc1 (stereo not given) | 97.8
NCCNc1ccc(NCCN)c2c1C(=O)c1ccncc1C2=O | 108
C=CC(C)(C)c1cc(/C=C/C(=O)c2ccc(O)cc2)c(OC)cc1O | 52.1
CC(C)OC(=O)Nc1cccc(Cl)c1 | 73
Nc1nc(N)c(N=O)c(OCC2CCCCC2)n1 | 83.5
O=C(OCC(O)CO)c1ccccc1Nc1ccnc2cc(Cl)ccc12 (stereo not given) | 83.6
N=C(NCCC[C@H](N)C(=O)O)N[N+](=O)[O-] | 0.71
c1cc(Nc2cc(C3CC3)n[nH]2)nc(Nc2ccc3[nH]cnc3c2)n1 | 66.6
COc1ccc(C2C(=O)c3ccccc3C2=O)cc1 | 99.8

SMILES | inhibition [%]
NS(=O)(=O)c1cc2c(cc1Cl)N=C(CSCc1ccccc1)NS2(=O)=O | 42.3
c1ccc2sc(SNC3CCCCC3)nc2c1 | 23.2
O=C(Nc1ccc2[nH]ccc2c1)c1ccccc1 | 86.3
Cc1[nH]cnc1-c1ccc(Cl)cc1 | 94.8
O=C(NCc1ccc2c(c1)OCO2)c1c(Cl)cccc1Cl | 17.4
CCCCOC(=O)c1cc2c(cn1)[nH]c1ccccc12 | 91.6
O=C1C(Cl)=C(N2CCOCC2)C(=O)N1c1ccc(Cl)c(Cl)c1 | 83.8
COc1ccc(-c2nc(N3CCOCC3)c3sc(CN(C)c4ncc(C(=O)NO)cn4)cc3n2)cn1 | 104
Cc1c(CN(C)C(=O)/C=C/c2cnc3c(c2)CCC(=O)N3)oc2ccccc12 | 0.5
CN(C)CC/C=C1\c2ccccc2Sc2ccc(Cl)cc21 | 94.5
CCCCCCCCCCCCCCCC(=O)N[C@@H](CCC(=O)NCCCC[C@H](NC(=O)[C@H](C)NC(=O)[C@H](C)NC(=O)[C@H](CCC(N)=O)NC(=O)CNC(=O)[C@H](CCC(=O)O)NC(=O)[C@H](CC(C)C)NC(=O)[C@H](Cc1ccc(O)cc1)NC(=O)[C@H](CO)NC(=O)[C@H](CO)NC(=O)[C@@H](NC(=O)[C@H](CC(=O)O)NC(=O)[C@H](CO)NC(=O)[C@@H](NC(=O)[C@H](Cc1ccccc1)NC(=O)[C@@H](NC(=O)CNC(=O)[C@H](CCC(=O)O)NC(=O)[C@H](C)NC(=O)[C@@H](N)Cc1cnc[nH]1)[C@@H](C)O)[C@@H](C)O)C(C)C)C(=O)N[C@@H](CCC(=O)O)C(=O)N[C@@H](Cc1ccccc1)C(=O)N[C@H](C(=O)N[C@@H](C)C(=O)N[C@@H](Cc1c[nH]c2ccccc12)C(=O)N[C@@H](CC(C)C)C(=O)N[C@H](C(=O)N[C@@H](CCCNC(=N)N)C(=O)NCC(=O)N[C@@H](CCCNC(=N)N)C(=O)NCC(=O)O)C(C)C)[C@@H](C)CC)C(=O)O | 15.4
CN1[C@@H]2C[C@@H](O)C[C@H]1[C@@H]1O[C@@H]12 | 67.9
c1ccc(CCNc2nc(-c3ccccc3)cs2)cc1 | 96.5
CC(C)(C)C1CCc2c(sc(NC(=O)c3ccco3)c2C(=O)O)C1 (stereo not given) | 73.7
NS(=O)(=O)c1cc2c(cc1C(F)(F)F)NC(Cc1ccccc1)NS2(=O)=O (stereo not given) | 36
C[C@H](NCc1ccc(OCc2cccc(F)c2)cc1)C(N)=O | 84.6
N#Cc1cc(F)cc(-c2nc(-c3ccc(F)cn3)no2)c1 | 55.6
CCOc1ccc(S(=O)(=O)O)c2cccnc12 | -1.18
COc1ccc(Nc2ccn(-c3ccccc3)n2)cc1 | 111
O=c1c2ccccc2[se]n1-c1ccccc1 | 3.77
Cc1cc(O)c2c(=O)c3c(O)cc(O)c4c5c(O)cc(O)c6c(=O)c7c(O)cc(C)c8c1c2c(c34)c(c78)c65 | 66.5
CCC(CC)(CC(=O)Nc1cccc(/C=C/c2nc(C3CCC3)cs2)c1)C(=O)O | 36.2

SMILES | inhibition [%]
Cc1cc(Cl)ccc1OCCCC(=O)NO | 96.5
CC(C)[C@H](C(=O)Nc1ccc(C(=O)NO)cc1)c1ccccc1 | 101
O=C(O)Cc1ccc2c(c1)C(=O)c1ccccc1CO2 | 64.3
O=C(Nc1ccc(O)cc1)c1ccccc1O | 100
N[C@@H]1CCCN(c2c(/C=C3\SC(=O)NC3=O)cccc2-c2ccccc2)C1 | 14.4
C/C(=N\NC(=N)N)c1cc(NC(=O)CCCCCCCCC(=O)Nc2cc(/C(C)=N/NC(=N)N)cc(/C(C)=N/NC(=N)N)c2)cc(/C(C)=N/NC(=N)N)c1 | 57.5
O=C(Oc1ccccc1)c1ccccc1O | 67.9
CN(Cc1ccccc1)C(=O)[C@H](Cc1ccc2ccccc2c1)NC(=O)[C@@H]1C[C@@H](O)CN1C(=O)c1cn(C)c2ccccc12 | 6.39
O=C(O)CNC(=O)c1c(O)c2ccccc2n(Cc2ccccc2)c1=O | 73.4
c1ccc(-c2cnn3cc(-c4ccc(OCCN5CCOCC5)cc4)cnc23)cc1 | 106
N#C/C(=C\c1ccc(O)c(O)c1)C(=O)NCCCc1ccccc1 | 33.8
O=c1c2ccccc2oc2ccccc12 | 61.8
COc1cc(OC)cc(-c2ccc3c(-c4ccc(F)cc4)n[nH]c3n2)c1 | 47.1
O=C(O)c1ccc2nc(-c3cc(Cl)cc(Cl)c3)oc2c1 | 88.2
N#C/C(=C\c1ccc(O)c(O)c1)C(=O)Nc1ccccc1 | 58.9
Cc1cc(C)c(S(=O)(=O)Nc2cccc(C(F)(F)F)c2)c(C)c1 | -5.7
CN1CCN(c2ccc3nc(-c4c(N)c5c(F)cccc5[nH]c4=O)[nH]c3c2)CC1 | 63
CC(C)(C)c1ccc(C(=O)Nc2cn3cc(-n4ccnc4)ccc3n2)cc1 | 67.2
CCN(CC)C(=O)Nc1ccc(OCC(O)CNC(C)(C)C)c(C(C)=O)c1 (stereo not given) | 27.1
C/N=c1/nc(-c2ccccc2)n(-c2ccccc2)s1 | 81.7
Cc1[nH]c(/C=C2\C(=O)Nc3cc(-c4ccccc4)ccc32)c(C)c1CCC(=O)O | 90.4
Cc1nc2ccc(-n3ncc(C(=O)c4cc5ccccc5[nH]4)c3N)cc2[nH]1 | 112

SMILES | inhibition [%]
CN1CCCN=C1/C=C/c1cccs1 | 42
N#Cc1c(O)c2c(-c3ccc(-c4ccccc4O)cc3)csc2[nH]c1=O | 57.7
CCCn1c(=O)c2[nH]c(-c3cnn(Cc4cccc(C(F)(F)F)c4)c3)nc2n(CC)c1=O | 18.7
Cc1cc(C)c(N)c(C#Cc2cccc(F)c2)n1 | 74.2
CC(=O)Oc1ccccc1C(=O)Nc1ccccc1 | 61.5
Nc1cc2c3ccccc3ccc2c2ccccc12 | 24.2
CC(C)COC(=O)c1ccc(N)cc1 | 82.1
O=C1NC(=O)/C(=C/c2ccc(-c3ccc(F)cc3O)o2)S1 | 94.9
COc1ccc(N(C(=O)Oc2c(C)cccc2C)c2ccnc(Nc3ccc(N4CCN(C)CC4)cc3)n2)c(OC)c1 | -5.43
Cc1c(-c2ccc(O)cc2)n(Cc2ccc(OCCN3CCCCCC3)cc2)c2ccc(O)cc12 | 97.7
CCOc1cc(/C=C2/C(=O)N(c3ccccc3)N=C2C)cc(Cl)c1OCC(=O)OC | 16.6
COc1ccc(-c2cc(=O)c3c(O)cc(O)cc3o2)cc1O | 102
Cc1cc(C)c(/C=C2\C(=O)Nc3ccccc32)[nH]1 | 36.4
Nc1ccc(/N=N/c2ccccc2)c(N)n1 | 106
O=C(Nc1ccc([N+](=O)[O-])cc1Cl)c1cc(Cl)ccc1O | 42.3
COc1ccccc1OCC(O)COC(N)=O (stereo not given) | 8.29
O=C(Nc1ccc(Br)cc1)c1cc(Br)cc(Br)c1O | 30.8
O=C(CCCCCCNC(=O)c1cnc(N(c2ccccc2)c2ccccc2)nc1)NO | 105
COC(=O)Nc1nc2cc(SC(C)C)ccc2[nH]1 | 87.7

Source: ChEMBL document CHEMBL4808148, “HDAC6 screening dataset using tau-based substrate in an enzymatic assay yields selective inhibitors and activators” (2021)
